Assay results as given in US20220056014A1, “PHENYLPYRROLIDINE COMPOUND AND USE THEREOF” (WUHAN HUMANWELL INNOVATIVE DRUG RESEARCH AND DEVELOPMENT …, priority 2018, published 2022).
pIC50: −log10 of the molar value. Where two headings read alike, the source gives them in different places.

Experiments:
[1] = test system: LPS-induced secretion of TNFα in human PBMCs; test: LPS-induced secretion of TNFα in human PBMCs; type: cell-based; settings: Homo sapiens, PBMC, 24 h, LPS 10 ng/ml
Procedure: Extraction process of peripheral blood mononuclear cells (PBMCs): one unit of human peripheral blood concentrate (concentrated from 200 cc peripheral blood) was sucked and added with 0.9% saline until a total volume reached 120 ml, and mixed homogenously. 15 ml Lymphoprep™ was added into 50 ml centrifuge tube, and then 30 ml of diluted blood concentrate was carefully and slowly added thereto, allowing the diluted blood to be stacked on the layered solution and preventing the diluted blood from being mixed into the separated solutions or breaking the surface of the separated solution, wherein a ratio of Lymphoprep™ to the diluted blood was 1:2. The centrifuge tubes were balanced and placed in a horizontal centrifuge (eppendorf, 5810R), and centrifuged at 800 g and 20° C. for 20 min. The centrifuge tubes were carefully taken out. PBMCs were absorbed by directly inserting the Pasteur pipette deep into the buffy coat. The obtained PBMCs were gently pipetted with 3 times the volume of 0.9% normal saline or PBS (without calcium or magnesium ions) to mix homogenously. After that, the cells were centrifuged at 250 g and 20° C. for 10 min, the supernatant was removed to remove the platelets remaining in the cell suspension. The obtained cell pellet was resuspended in 20 ml of PBS, and counted using trypan blue.
Compound screening by using PBMCs: the PBMC suspension obtained above was centrifuged to remove PBS, then resuspended in complete medium (RPMI1640+10% FBS+1% P/S) and counted. 100 μL/well of the cells was seeded at 5×10^4/well. Each of the compounds to be screened was prepared as 4 times the final concentration, which was added to the cells at 50 μL/well. The compound was pre-incubated for 30 min in advance of being added to the cells. Meanwhile, control wells to which the compound was not added were provided. A final stimulation concentration of LPS was 10 ng/ml, and LPS was formulated as 4 times the final stimulation concentration, and added to the cells at 50 μL/well. Meanwhile, control wells, i.e., wells without LPS were provided. The cells were incubated for 24 h, and 10% of the supernatant was collected for detection. The obtained supernatant was detected using Invitrogen's Human TNF-α kit (REF: 88-7346-88).

[2] = target: T1, PDE4B (Homo sapiens, UniProt Q07343); test: PDE4B enzyme activity assay (PDE-Glo Phosphodiesterase Assay Kit); type: biochemical; settings: for IC50 (PDE4D)/IC50 (PDE4B): selectivity ratio
T1 construct: purchased Enzo Life Sciences BML-SE522-0020
T1 sequence (Q07343 whole entry): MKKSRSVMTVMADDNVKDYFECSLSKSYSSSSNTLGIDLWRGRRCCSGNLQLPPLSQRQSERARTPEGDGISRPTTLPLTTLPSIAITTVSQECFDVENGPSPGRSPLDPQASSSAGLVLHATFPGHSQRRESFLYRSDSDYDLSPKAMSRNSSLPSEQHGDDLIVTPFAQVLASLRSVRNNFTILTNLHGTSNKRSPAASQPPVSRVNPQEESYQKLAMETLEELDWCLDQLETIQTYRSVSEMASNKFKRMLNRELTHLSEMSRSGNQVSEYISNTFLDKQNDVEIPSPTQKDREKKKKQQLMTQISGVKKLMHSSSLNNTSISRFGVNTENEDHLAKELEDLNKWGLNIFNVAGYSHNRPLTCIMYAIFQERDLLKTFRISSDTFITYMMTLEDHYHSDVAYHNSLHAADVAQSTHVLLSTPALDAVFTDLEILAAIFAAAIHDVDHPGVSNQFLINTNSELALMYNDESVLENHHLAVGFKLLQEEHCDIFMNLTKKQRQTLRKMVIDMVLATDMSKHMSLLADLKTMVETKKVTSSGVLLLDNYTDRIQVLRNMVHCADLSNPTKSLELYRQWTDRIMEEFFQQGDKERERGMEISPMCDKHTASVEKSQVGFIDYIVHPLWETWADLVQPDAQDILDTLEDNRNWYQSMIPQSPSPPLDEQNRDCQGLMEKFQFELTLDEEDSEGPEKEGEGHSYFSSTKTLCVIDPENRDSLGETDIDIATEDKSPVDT
Procedure: (§1) For the previously synthesized compounds, the inhibitory activity of the compounds against PDE4B and against PDE4D was tested by using PDE-Glo Phosphodiesterase Assay Kit (promega, V1361). In short, in accordance with the instructions of the kit, a concentrated stock solution (10 mM) the compound to be tested was first prepared with DMSO solvent, and the concentrated stock solution was then diluted into 10× working solutions with a Reaction buffer provided in the kit. With the Reaction buffer, on ice, PDE4B enzyme (Enzo Life Sciences, BML-SE522-0020) was diluted to a concentration of 1 ng/μl to obtain a PDE4B enzyme working solution, and PDE4D enzyme (Enzo Life Sciences, BML-SE523-0020) was diluted to a concentration of 4 ng/μl to obtain a PDE4D enzyme working solution. 1.5 μl of the PDE4B working solution (or PDE4D working solution) and 1 μl of the compound working solution were added to wells of 384-well plate (Corning, CLS3707), and incubated with shaking at room temperature for 5 min, followed by adding 2.5 μl of cAMP (in Reaction buffer, 2 μM) per well, incubating with shaking at room temperature for 20 min. 2.5 μl/well of 1× Termination Buffer, and then 2.5 μl/well of 1× Detection Buffer were added, and further incubated with shaking at room temperature for 20 min. 10 μl/well of 1× Kinase-Glo was added, and the plate was incubated with shaking at room temperature for 10 min, and bioluminescence was measured with PheraStar instrument. The experimental results were plotted with GraphPad Prism software, and fitted to calculate IC50 of each compound.

[3] = Rat pharmacokinetic test; type: in vivo, SD rats; settings: male, Sprague-Dawley (SD), plasma, oral gavage 10 mg/kg
Procedure: (§2) In the rat pharmacokinetic test, 3 male SD rats (180-240 g) were fasted overnight, and orally administered with 10 mg/kg of compound to be tested. Blood was collected before the administration, and 15 min, 30 min, 1 h, 2 h, 4 h, 8 h, and 24 h hours after the administration. The blood sample was centrifuged at 8000 rpm for 6 min at 4° C., and the plasma was collected and stored at −20° C. The plasma collected at each time point was added and mixed with 3-5 times the amount of acetonitrile solution containing an internal standard, vortexed for 1 min, centrifuged at 13,000 rpm for 10 min at 4° C. The supernatant was taken and mixed with 3 times the amount of water, and an appropriate amount of the mixture was taken for LC-MS/MS analysis. The main pharmacokinetic parameters were analyzed with WinNonlin 7.0 software non-compartmental model.

[4] = target: T2, PDE4D (Homo sapiens, UniProt Q08499); test: PDE4D enzyme activity assay (PDE-Glo Phosphodiesterase Assay Kit); type: biochemical
T2 construct: purchased Enzo Life Sciences BML-SE523-0020
T2 sequence (Q08499 whole entry): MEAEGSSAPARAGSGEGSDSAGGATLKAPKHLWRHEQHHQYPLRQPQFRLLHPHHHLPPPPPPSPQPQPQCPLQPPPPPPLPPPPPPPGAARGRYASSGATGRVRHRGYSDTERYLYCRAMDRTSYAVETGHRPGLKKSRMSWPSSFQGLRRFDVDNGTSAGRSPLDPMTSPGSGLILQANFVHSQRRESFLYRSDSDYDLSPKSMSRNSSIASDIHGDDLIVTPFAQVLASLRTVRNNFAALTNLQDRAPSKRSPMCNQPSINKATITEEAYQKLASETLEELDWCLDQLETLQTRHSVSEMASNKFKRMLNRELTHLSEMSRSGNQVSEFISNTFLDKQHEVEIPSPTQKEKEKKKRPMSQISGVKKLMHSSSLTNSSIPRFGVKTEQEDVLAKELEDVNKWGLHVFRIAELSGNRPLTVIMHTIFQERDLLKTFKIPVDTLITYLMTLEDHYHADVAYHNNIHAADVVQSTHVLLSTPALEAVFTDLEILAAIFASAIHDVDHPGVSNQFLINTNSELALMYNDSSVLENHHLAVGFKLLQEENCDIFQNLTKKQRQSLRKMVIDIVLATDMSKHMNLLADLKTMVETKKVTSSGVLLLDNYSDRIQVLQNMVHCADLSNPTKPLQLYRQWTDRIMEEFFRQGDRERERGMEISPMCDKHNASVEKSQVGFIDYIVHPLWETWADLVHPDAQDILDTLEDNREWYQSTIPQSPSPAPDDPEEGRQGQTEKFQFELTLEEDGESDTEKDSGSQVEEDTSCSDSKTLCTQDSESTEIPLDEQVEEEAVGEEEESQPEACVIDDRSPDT
Procedure: as §1

[5] = Mouse pharmacokinetic test; type: in vivo, CD-1 mice; settings: male, CD-1, plasma, oral gavage 10 mg/kg
Procedure: as §2
(§3) In the mouse pharmacokinetic test, 9 male CD-1 mice (20-25 g) were fasted overnight, and orally administered with 10 mg/kg of the compound to be tested. Bloods of 3 mice were collected at each time point, and bloods of 9 mice were alternately collected in total. In the pharmacokinetic test in canine, 3 male beagle dogs (8-10 kg) were fasted overnight, and orally administered with 5 mg/kg of the compound to be test. In the pharmacokinetic test of cynomolgus monkeys, 3 male cynomolgus monkeys (4 to 6.5 kg) were fasted overnight, and orally administered 20 mg/kg of the compound to be test. The remaining processes are the same as those of the rat pharmacokinetic test.

[6] = test system: LPS-stimulated TNF-α release; test: LPS-stimulated TNF-α release in mice; type: in vivo, Balb/c mice; settings: Mus musculus, oral 50 mg/kg (positive control 100 mg/kg), 1 mg/kg LPS i.p.
Procedure: 18 Balb/c mice (6 to 8 weeks) were randomly assigned to a blank group, a model group, and an administration group, 6 mice in each group. A vehicle (blank group, model group) or 50 mg/kg compound (administration group, where the dose for the positive control group was 100 mg/kg) was orally administrated. 30 min after the oral administration, PBS (blank group) or 1 mg/kg LPS (model group and administration group) was injected intraperitoneally. 90 min or 120 min after the intraperitoneal injection, blood was collected from the hearts of the mice, and still stood at 2-8° C. for 4 hours, and centrifuged at 5000 rpm for 10 min to collect the serum. The serum was stored at −80° C. for testing.
The serum TNF-α level was tested using a mouse TNF-α detection kit (Mouse TNFa ELISA kit: Biolegend, Cat: 430904). The inhibitory activity of the compounds against the TNF-α release was calculated based on the serum TNF-α level.
Inhibitory activity of compound %={1−(TNFα concentration of administration group−TNFα concentration of blank group)/(TNFα concentration of model group−TNFα concentration of blank group)}×100%.

[7] = Pharmacokinetic test in canine; type: in vivo, beagle dogs; settings: male, beagle, dog, plasma, oral gavage 5 mg/kg
Procedure: as §2, §3

[8] = 1.5 h, blood 90 min after LPS, read-out: Inhibition rate (%) of LPS-stimulated TNF-α release, 90 min
[9] = 2 h, blood 120 min after LPS, read-out: Inhibition rate (%) of LPS-stimulated TNF-α release, 120 min

pIC50 [2]	IC50 (PDE4D)/IC50 (PDE4B) [2]	AUC(0-t) [3] [ng·h/mL]	Cmax [3] [ng/mL]	Tmax [3] [min]	pIC50 [4]	AUC(0-t) [5] [ng·h/mL]	Cmax [5] [ng/mL]	Tmax [5] [min]	AUC(0-t) [7] [ng·h/mL]	Cmax [7] [ng/mL]	Tmax [7] [min]	Compound	pIC50 [1]	inhibition in vivo at 50 mg/kg [6, 8] [%]	inhibition in vivo at 50 mg/kg [6, 9] [%]
9.04	0.74	23.5	22.5	19.8	9.17	311	339	15				COc1ccc([C@@H]2CN(C(=O)[C@@H](O)CO)C[C@@]2(C)[C@@H](C)O)cc1OC1CN(c2cc(C#N)c(C)cn2)C1 [Compound 001, 2-(3-(5-((3S,4S)-1-((S)-2,3-dihydroxypropanoyl)-4-((R)-1-hydroxyethyl)-4-methylpyrrolidin-3-yl)-2-methoxyphenoxy)azetidin-1-yl)-5-methylisonicotinonitrile]	9.44	53.6	39.5
9.37	0.37	103	41.6	19.8	9.80	386	355	15	534	198	60	COc1ccc([C@@H]2CN(C(=O)[C@@H](O)CO)C[C@@]2(C)[C@@H](C)O)cc1OC1CN(c2cc(Cl)c(C)cn2)C1 [Compound 002, (S)-1-((3S,4S)-4-(3-((1-(4-chloro-5-methylpyridin-2-yl)azetidin-3-yl)oxy)-4-methoxyphenyl)-3-((R)-1-hydroxyethyl)-3-methylpyrrolidin-1-yl)-2,3-dihydroxypropan-1-one]	9.25		66.2
8.84	2.45	443	133	15	8.45	625	298	30	1760	534	30	COc1ccc([C@@H]2CN(C(=O)[C@@H](O)CO)C[C@@]2(C)[C@@H](C)O)cc1OC1CN(c2cc(C)c(C)cn2)C1 [Compound 008, (S)-1-((3S,4S)-4-(3-((1-(4,5-dimethylpyridin-2-yl)azetidin-3-yl)oxy)-4-methoxyphenyl)-3-((R)-1-hydroxyethyl)-3-methylpyrrolidin-1-yl)-2,3-dihydroxypropan-1-one]	8.74		63
8.72	0.50	95.3	40.4	19.8	9.02	645	314	15	1640	413	49.8	COc1ccc([C@@H]2CN(C(=O)[C@@H](O)CO)C[C@@]2(C)[C@@H](C)O)cc1OC1CN(c2cc(C)c(Cl)cn2)C1 [Compound 010, (S)-1-((3S,4S)-4-(3-((1-(5-chloro-4-methylpyridin-2-yl)azetidin-3-yl)oxy)-4-methoxyphenyl)-3-((R)-1-hydroxyethyl)-3-methylpyrrolidin-1-yl)-2,3-dihydroxypropan-1-one]	8.98	47.6	65.4
9.12	1.57	410	221	19.8	8.93	215	186	15				CCOc1ccc(N2CC(Oc3cc([C@@H]4CN(C(=O)[C@@H](O)CO)C[C@@]4(C)[C@@H](C)O)ccc3OC)C2)nc1 [Compound 022, (S)-1-((3S,4S)-4-(3-((1-(5-ethoxypyridin-2-yl)azetidin-3-yl)oxy)-4-methoxyphenyl)-3-((R)-1-hydroxyethyl)-3-methylpyrrolidin-1-yl)-2,3-dihydroxypropan-1-one]	9.00	60.7	
